# Literature values, collected in patent US9970152B2, “Method for functionalizing a solid material surface with self assembling or self aggregating cyclodextrins and products thereof” (Aalborg Universitet, priority 2010, dated 2018).
# Details: in water
smiles,measurement,value
OC[C@H]1O[C@@H]2O[C@H]3[C@H](O)[C@@H](O)[C@@H](O[C@H]4[C@H](O)[C@@H](O)[C@@H](O[C@H]5[C@H](O)[C@@H](O)[C@@H](O[C@H]6[C@H](O)[C@@H](O)[C@@H](O[C@H]7[C@H](O)[C@@H](O)[C@@H](O[C@H]1[C@H](O)[C@H]2O)O[C@@H]7CO)O[C@@H]6CO)O[C@@H]5CO)O[C@@H]4CO)O[C@@H]3CO [α CD],Solubility,129.5 g/kg H2O
